Results reported in patent publication US4255519A, “Glycerol oxidase and process for the production thereof” (priority 1978, dated 1981).

System: glycerol oxidase I
Test: not given
Conditions: glycerol oxidase I of Aspergillus japonicus (U.S. application Ser. No. 897,695); cited from earlier work
In the case of OCC(O)CO [Glycerol], the Km is listed as 18.5 mM.

System: glycerol oxidase II
Test: Inhibitors of enzyme: activity with 1 mM inhibitor, oxygen consumption rate by Warburg's manometer
Format: biochemical, Penicillium sp. KY 868
Conditions: activity with no inhibitor defined as 100, from oxygen consumption rate
Protocol: Enzymes activities obtained by adding 1 mM of various inhibitors are shown in Table 1, the activity of the enzyme with no addition of the inhibitor being defined as 100. The activities are calculated from consumption rate of oxygen used in reaction measured by Warburg's manometer.
For O=S(=O)([O-])[O-].[Fe+2] [FeSO4], the “Relative rate (%)” value was 0%. With [Cl][Hg][Cl] [HgCl2] the “Relative rate (%)” value was 79.0%. In the case of O=C(O)c1cc[c]([Hg][Cl])cc1 [p-Chloromercuri benzoate], the “Relative rate (%)” value is reported as 81.4%. With O=C(O)CN(CCN(CC(=O)O)CC(=O)O)CC(=O)O [EDTA] the “Relative rate (%)” value was 82.8%. For CCN(CC)C(=S)S [Diethyl dithiocarbamate], the “Relative rate (%)” value was 0%. In the case of O=[N+]([O-])[O-].[Ag+] [AgNO3], the “Relative rate (%)” value is reported as 0%. With NO [NH2 OH] the “Relative rate (%)” value was 0%. With c1cnc2c(c1)ccc1cccnc12 [o-Phenanthroline] the “Relative rate (%)” value was 65.5%. With CC(=O)[O-].CC(=O)[O-].[Pb+2] [Pb(CH3 COO)2] the “Relative rate (%)” value was 26.3%. For Cc1ccc2ccc3ccc(C)nc3c2n1 [Neocuproine], the “Relative rate (%)” value was 80.3%. For [Cl-].[Cl-].[Zn+2] [ZnCl2], the “Relative rate (%)” value was 84.3%. In the case of c1ccc(-c2ccccn2)nc1 [α,α'-Dipyridyl], the “Relative rate (%)” value is reported as 75.7%.

System: glycerol oxidase II
Test: Substrate specificity, relative activity by 4-AA method
Format: biochemical, Penicillium sp. KY 868
Conditions: not given
Protocol: The relative activity is measured using other substrates in equimolar amounts to that of glycerol in the procedure for measuring the activity according to 4-AA method.
The relative activities on other substrates are given in Table 3, the activity on glycerol being defined as 100.
The enzyme activity is expressed by "unit." A "unit" of the enzyme activity is defined as that amount of enzyme which will decompose 1 μ mole of glycerol at 37° C. in 1 minute in the presence of oxygen. The determination of the enzyme activity is carried out as follows: glycerol is reacted with glycerol oxidase II with stirring to form hydrogen peroxide, and 4-aminoantipyrine and phenol are reacted with the resulting hydrogen peroxide in the presence of peroxidase to derive quinoneimine pigment. The optical density in the visible portion of the resulting quinoneimine pigment is measured to determine the amount of generated hydrogen peroxide, whereby the enzyme activity is determined (which will be hereinafter referred to as "4-AA method").
The reagents (1)-(6) are mixed in a test tube, and then shaken at 37° C. for 5 minutes. Then, enzyme solution is added thereto, and thus obtained mixture is made up to 3 ml with TES buffer solution. Reaction is carried out at 37° C. for 10 minutes with shaking. On the other hand, similar procedure is repeated using water in place of the test solution as a reference. The optical density of the reaction solution at 500 nm is measured, and a difference from the control is determined as ΔOD (optical density).
With O=C(CO)CO [Dihydroxyacetone] the “Substrate specificity (in words)” value was “reacts specifically”. In the case of OCC(O)CO [Glycerol], the “Substrate specificity (in words)” value is reported as “reacts specifically”.

Same assay, conditions: substrate equimolar to glycerol; activity on glycerol defined as 100; 4-AA method
CC(C)O [iso-Propyl alcohol] gave a Relative activity of 23. Molecule CC(C)CO [iso-Butyl alcohol] has a Relative activity of 14. Molecule OCCCCO [1,4-Butanediol] has a Relative activity of 11. Work on CCCO [n-Propyl alcohol] yielded a Relative activity of 11. With OCCCO [1,3-Propanediol] the Relative activity was 23. Work on CCCCO [n-Butyl alcohol] yielded a Relative activity of 7. Molecule O=C(CO)CO [Dihydroxyacetone] has a Relative activity of 293. CCO [Ethanol] showed a Relative activity of 11. Molecule CCC(C)O (stereo not shown) [sec-Butyl alcohol] has a Relative activity of 9. OCC(O)CO [Glycerol] showed a Relative activity of 100. Molecule CC(O)CCO (stereo not shown) [1,3-Butanediol] has a Relative activity of 11. For CC(O)CO (stereo not shown) [1,2-Propanediol], the Relative activity was 11. O=P(O)(O)OCC(O)CO (stereo not shown) [Glycerol-3-phosphoric acid] gave a Relative activity of 12. CC(O)C(C)O (stereo not shown) [2,3-Butanediol] showed a Relative activity of 16.

System: glycerol oxidase I
Test: not given
Conditions: glycerol oxidase I of Neurospora crassa (U.S. application Ser. No. 897,695); cited from earlier work
For OCC(O)CO [Glycerol], the Km is listed as 19 mM.

System: glycerol oxidase II
Test: Substrate affinity: Michaelis constant against glycerol
Format: biochemical, Penicillium sp. KY 868
Conditions: glycerol oxidase II of the genus Penicillium
Description: *Determination of Michaelis constant is described in the following reference. H. Lineweaver and D. Burk, J. Amer. Chem. Soc., 56, 658 (1934).
With OCC(O)CO [Glycerol] the Km was 8 mM.
